Measured values reported in ChEMBL document CHEMBL5154739, “Structure-activity relationships of N-terminal variants of peptidomimetic tissue transglutaminase inhibitors” (Eur J Med Chem, 2022).
pEC50, pKi: −log10 of the molar value. Active and inactive are the calls of the source. The rule behind the calls is not given here.

Columns and labels:
[1] = molecular target: T1, Protein-glutamine gamma-glutamyltransferase (Homo sapiens) (UniProt P21980); assay: Inhibition of TG2 (unknown origin) using Cbz-Glu(gamma-p-nitrophenyl ester)Gly (AL5) as substrate assessed as Kinact/Ki ratio and measured by colorimetric assay
T1 sequence (whole entry): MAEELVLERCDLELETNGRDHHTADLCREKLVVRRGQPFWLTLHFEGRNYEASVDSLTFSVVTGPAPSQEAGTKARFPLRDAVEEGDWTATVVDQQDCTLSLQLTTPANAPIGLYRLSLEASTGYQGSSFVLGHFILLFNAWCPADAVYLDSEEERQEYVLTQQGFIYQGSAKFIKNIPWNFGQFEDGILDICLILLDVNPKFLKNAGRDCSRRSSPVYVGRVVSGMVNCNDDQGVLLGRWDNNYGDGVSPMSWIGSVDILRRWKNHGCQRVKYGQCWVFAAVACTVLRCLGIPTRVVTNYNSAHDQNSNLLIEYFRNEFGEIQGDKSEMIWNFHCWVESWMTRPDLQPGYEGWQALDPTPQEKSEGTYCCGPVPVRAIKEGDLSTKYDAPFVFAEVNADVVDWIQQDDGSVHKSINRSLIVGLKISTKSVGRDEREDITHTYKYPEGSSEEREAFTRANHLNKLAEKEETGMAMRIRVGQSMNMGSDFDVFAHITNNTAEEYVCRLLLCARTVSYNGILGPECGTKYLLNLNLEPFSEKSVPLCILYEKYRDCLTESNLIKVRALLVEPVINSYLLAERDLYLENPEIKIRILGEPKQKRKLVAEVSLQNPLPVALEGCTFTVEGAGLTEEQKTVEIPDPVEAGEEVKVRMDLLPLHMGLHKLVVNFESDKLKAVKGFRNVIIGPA

[2] = molecular target: T1, Protein-glutamine gamma-glutamyltransferase (Homo sapiens); assay: (§1) Inhibition of TG2 (unknown origin) using Cbz-Glu(gamma-p-nitrophenyl ester)Gly (AL5) as substrate and measured by colorimetric assay
[3] = molecular target: T1, Protein-glutamine gamma-glutamyltransferase (Homo sapiens); assay: Inhibition of GTP binding to TG2 (unknown origin) measured by GTP Gamma-S-FL BODIPY assay
[4] = Half-life in plasma (unknown origin); type: ADME, cell-free
[5] = Plasma protein binding (unknown origin); type: ADME, cell-free; settings: read-out: PPB (converted)
[6] = Plasma protein binding (unknown origin) assessed as drug recovery; type: ADME, cell-free; settings: read-out: Drug recovery
MDR1 (P-gp) [7] = assay: Apparent permeability from apical to basolateral side in dog MDCK-MDR1 cells; type: ADME, cell-based, Canis lupus familiaris
MDR1 (P-gp) [8] = assay: Apparent permeability from basolateral to apical side in dog MDCK-MDR1 cells; type: ADME, cell-based, Canis lupus familiaris
MDR1 (P-gp) [9] = assay: Efflux ratio of apparent permeability in dog MDCK-MDR1 cells; type: ADME, cell-based, Canis lupus familiaris
P-gp [10] = assay: Substrate activity at P-gp in dog MDCK cells assessed as apparent permeability across apical to basolateral membrane; type: ADME, cell-based, Canis lupus familiaris; settings: MDCK-MDR1
P-gp [11] = assay: Substrate activity at P-gp in dog MDCK cells assessed as apparent permeability across basolateral to apical membrane; type: ADME, cell-based, Canis lupus familiaris; settings: MDCK-MDR1
P-gp [12] = assay: Substrate activity at P-gp in dog MDCK cells assessed as efflux ratio; type: ADME, cell-based, Canis lupus familiaris; settings: MDCK-MDR1
[13] = Anti-invasion activity against human SCC-13 cells assessed as inhibition of invasion incubated for 18 hrs by matrigel trans well plate assay; type: functional, cell-based; settings: SCC-13, 18 h
[14] = molecular target: T2, Protein-glutamine gamma-glutamyltransferase (Homo sapiens, UniProt P21980); assay: as §1
T2 sequence (P21980 whole entry): T1 sequence (whole entry)

Row | SMILES | Ratio [1] | Kinact [2] | further results
1 | C=CC(=O)NCCCC[C@H](NC(=O)Cc1ccc(Cl)c(Cl)c1)C(=O)N1CCN(C(=O)c2cccc3ccccc23)CC1 | 131 10^3/M/min | 0.08 min⁻¹ | 
2 | C=CC(=O)NCCCC[C@H](NC(=O)Cc1ccc(F)cc1)C(=O)N1CCN(C(=O)c2cccc3ccccc23)CC1 | 119 10^3/M/min | 0.49 min⁻¹ | 
3 | C=CC(=O)NCCCC[C@H](NC(=O)c1nccn1C)C(=O)N1CCN(C(=O)c2cccc3ccccc23)CC1 | 11.5 10^3/M/min | 0.18 min⁻¹ | 
4 | C=CC(=O)NCCCC[C@H](NC(=O)Cc1ccccc1C(F)(F)F)C(=O)N1CCN(C(=O)c2cccc3ccccc23)CC1 | 100 10^3/M/min | 1 min⁻¹ | 
5 | C=CC(=O)NCCCC[C@H](NC(=O)c1cccc2ccccc12)C(=O)N1CCN(C(=O)c2cccc3ccccc23)CC1 | 20.1 10^3/M/min | 0.41 min⁻¹ | 
6 | C=CC(=O)NCCCC[C@H](NC(=O)c1ccncc1)C(=O)N1CCN(C(=O)c2cccc3ccccc23)CC1 | 12.7 10^3/M/min | 0.24 min⁻¹ | 
7 | C=CC(=O)NCCCC[C@H](NC(=O)Cc1ccc(F)cc1F)C(=O)N1CCN(C(=O)c2cccc3ccccc23)CC1 | 224 10^3/M/min | 0.62 min⁻¹ | 
8 | C=CC(=O)NCCCC[C@H](NC(=O)Cc1ccccc1F)C(=O)N1CCN(C(=O)c2cccc3ccccc23)CC1 | 443 10^3/M/min | 0.46 min⁻¹ | inhibition [3]: Active; half-life [4]: 17.9 h; fraction unbound [5]: 0.16; recovery [6]: 86%; Papp A→B (MDR1 (P-gp) [7]): 0.29 ×10⁻⁶ cm/s; Papp B→A (MDR1 (P-gp) [8]): 18.2 ×10⁻⁶ cm/s; efflux ratio (MDR1 (P-gp) [9]): 61.7; Papp A→B (P-gp [10]): 2.2 ×10⁻⁶ cm/s; Papp B→A (P-gp [11]): 2.8 ×10⁻⁶ cm/s; efflux ratio (P-gp [12]): 1.3; pEC50 [13]: 4.11
9 | C=CC(=O)NCCCC[C@H](NC(=O)c1cccnc1)C(=O)N1CCN(C(=O)c2cccc3ccccc23)CC1 | 23.3 10^3/M/min | 0.59 min⁻¹ | 
10 | C=CC(=O)NCCCC[C@H](NC(=O)c1ccccn1)C(=O)N1CCN(C(=O)c2cccc3ccccc23)CC1 | 9.6 10^3/M/min | 0.39 min⁻¹ | 
11 | C=CC(=O)NCCCC[C@H](NC(=O)c1ccccc1F)C(=O)N1CCN(C(=O)c2cccc3ccccc23)CC1 | 39.4 10^3/M/min | 0.39 min⁻¹ | 
12 | C=CC(=O)NCCCC[C@H](NC(C)=O)C(=O)N1CCN(C(=O)c2cccc3ccccc23)CC1 | 44.1 10^3/M/min | 1.45 min⁻¹ | 
13 | C=CC(=O)NCCCC[C@H](NC(=O)c1cncn1C)C(=O)N1CCN(C(=O)c2cccc3ccccc23)CC1 | 12.6 10^3/M/min | 0.28 min⁻¹ | pKi [14]: 4.65
14 | C=CC(=O)NCCCC[C@H](NC(=O)OCc1ccccc1)C(=O)N1CCN(C(=O)c2cccc3ccccc23)CC1 | 244 10^3/M/min | 1.2 min⁻¹ | pKi [14]: 5.32
15 | C=CC(=O)NCCCC[C@H](NC(=O)Cc1cccc(Cl)c1)C(=O)N1CCN(C(=O)c2cccc3ccccc23)CC1 | 290 10^3/M/min | 0.3 min⁻¹ | 
16 | C=CC(=O)NCCCC[C@H](NC(=O)c1ccc(F)cc1)C(=O)N1CCN(C(=O)c2cccc3ccccc23)CC1 | 55.4 10^3/M/min | 0.9 min⁻¹ | 
17 | C=CC(=O)NCCCC[C@H](NC(=O)C(C)(C)C)C(=O)N1CCN(C(=O)c2cccc3ccccc23)CC1 | 56.2 10^3/M/min | 0.49 min⁻¹ | 
18 | C=CC(=O)NCC(=O)N1CCN(S(=O)(=O)c2cccc3c(N(C)C)cccc23)CC1 |  | 0.387 min⁻¹ | pKi [14]: 5.88
19 | C=CC(=O)NCCCC[C@H](NS(=O)(=O)CC)C(=O)N1CCN(C(=O)c2cccc3ccccc23)CC1 | 31.1 10^3/M/min | 0.83 min⁻¹ | 
20 | C=CC(=O)NCCCC[C@H](NC(=O)c1ccc2ccccc2c1)C(=O)N1CCN(C(=O)c2cccc3ccccc23)CC1 | 36.5 10^3/M/min | 0.29 min⁻¹ | 
21 | C=CC(=O)NCCCC[C@H](NC(=O)OCc1ccccc1)C(=O)NCCOCCOCCNS(=O)(=O)c1cccc2c(N(C)C)cccc12 | 14 10^3/M/min | 0.41 min⁻¹ | pKi [14]: 4.54; pEC50 [13]: 4.70
22 | C=CC(=O)NCCCC[C@H](NC(=O)C1CC1)C(=O)N1CCN(C(=O)c2cccc3ccccc23)CC1 | 96.6 10^3/M/min | 1.02 min⁻¹ | 

Row | SMILES | Ratio [1] | Kinact [2] | further results
23 | C=CC(=O)NCCCC[C@H](NC(=O)c1cccc(F)c1)C(=O)N1CCN(C(=O)c2cccc3ccccc23)CC1 | 47.8 10^3/M/min | 0.64 min⁻¹ | 
24 | C=CC(=O)NCCCC[C@H](NC(=O)Cc1ccccc1C)C(=O)N1CCN(C(=O)c2cccc3ccccc23)CC1 | 352 10^3/M/min | 2.1 min⁻¹ | half-life [4]: 9.47 h; fraction unbound [5]: 0.15; recovery [6]: 93%; Papp A→B (MDR1 (P-gp) [7]): 0.32 ×10⁻⁶ cm/s; Papp B→A (MDR1 (P-gp) [8]): 16.5 ×10⁻⁶ cm/s; efflux ratio (MDR1 (P-gp) [9]): 51.6; Papp A→B (P-gp [10]): 3.2 ×10⁻⁶ cm/s; Papp B→A (P-gp [11]): 3 ×10⁻⁶ cm/s; efflux ratio (P-gp [12]): 0.93
25 | C=CC(=O)NCCCC[C@H](NC(=O)Cc1ccccc1Cl)C(=O)N1CCN(C(=O)c2cccc3ccccc23)CC1 | 295 10^3/M/min | 5.3 min⁻¹ | pEC50 [13]: 4.04
26 | C=CC(=O)NCCCC[C@H](NC(=O)CCc1ccccc1)C(=O)N1CCN(C(=O)c2cccc3ccccc23)CC1 | 214 10^3/M/min | 0.6 min⁻¹ | 
27 | C=CC(=O)NCCCC[C@H](NC(=O)OCc1ccccc1)C(=O)N1CCN(S(=O)(=O)c2cccc3c(N(C)C)cccc23)CC1 | 100 10^3/M/min | 0.38 min⁻¹ | pKi [14]: 5.42; pEC50 [13]: 5.41
28 | C=CC(=O)NCCCC[C@H](NC(=O)CC)C(=O)N1CCN(C(=O)c2cccc3ccccc23)CC1 | 103 10^3/M/min | 0.53 min⁻¹ | 
29 | C=CC(=O)NCCCC[C@H](NC(=O)CC1CCCCC1)C(=O)N1CCN(C(=O)c2cccc3ccccc23)CC1 | 20.9 10^3/M/min | 0.26 min⁻¹ | 
30 | C=CC(=O)NCCCC[C@H](NC(=O)C(C)C)C(=O)N1CCN(C(=O)c2cccc3ccccc23)CC1 | 65.1 10^3/M/min | 0.65 min⁻¹ | 
31 | C=CC(=O)NCCCC[C@H](NC(=O)CC(C)C)C(=O)N1CCN(C(=O)c2cccc3ccccc23)CC1 | 66.7 10^3/M/min | 0.64 min⁻¹ | 
32 | C=CC(=O)NCCCC[C@H](NC(=O)C1C2CC3CC(C2)CC1C3)C(=O)N1CCN(C(=O)c2cccc3ccccc23)CC1 (stereo partly specified) | 14.9 10^3/M/min | 0.23 min⁻¹ | 
33 | C=CC(=O)NCCCC[C@H](NC(=O)Cc1cccc(F)c1)C(=O)N1CCN(C(=O)c2cccc3ccccc23)CC1 | 155 10^3/M/min | 0.75 min⁻¹ | 
34 | C=CC(=O)NCCCC[C@H](NS(C)(=O)=O)C(=O)N1CCN(C(=O)c2cccc3ccccc23)CC1 | 22.6 10^3/M/min | 0.57 min⁻¹ | pKi [14]: 3.60
35 | C=CC(=O)NCCCC[C@H](NS(=O)(=O)Cc1ccccc1)C(=O)N1CCN(C(=O)c2cccc3ccccc23)CC1 | 11.4 10^3/M/min | 0.53 min⁻¹ | 
36 | C=CC(=O)NCCCC[C@H](NC(=O)Cc1ccccc1)C(=O)N1CCN(c2ccc([N+](=O)[O-])nc2)CC1 | 508 10^3/M/min |  | 
37 | C=CC(=O)NCCCC[C@H](NC(=O)C1CCCCC1)C(=O)N1CCN(C(=O)c2cccc3ccccc23)CC1 | 33.6 10^3/M/min | 0.33 min⁻¹ | 
38 | C=CC(=O)NCCCC[C@H](NC(=O)Cc1ccccc1)C(=O)N1CCN(c2cccnc2)CC1 | 391 10^3/M/min |  | 
39 | C=CC(=O)NCCCC[C@H](NC(=O)Cc1cccc(Cl)c1Cl)C(=O)N1CCN(C(=O)c2cccc3ccccc23)CC1 | 170 10^3/M/min | 0.46 min⁻¹ | 
40 | C=CC(=O)NCCCC[C@H](NC(=O)c1cn(C)cn1)C(=O)N1CCN(C(=O)c2cccc3ccccc23)CC1 | 16 10^3/M/min | 0.46 min⁻¹ | pKi [14]: 4.54
41 | C=CC(=O)NCCCC[C@H](NC(=O)CCCc1ccccc1)C(=O)N1CCN(C(=O)c2cccc3ccccc23)CC1 | 39.6 10^3/M/min | 0.21 min⁻¹ | 
42 | C=CC(=O)NCCCC[C@H](NC(=O)Cc1ccccc1Br)C(=O)N1CCN(C(=O)c2cccc3ccccc23)CC1 | 310 10^3/M/min | 3.1 min⁻¹ | pEC50 [13]: 4.03
43 | C=CC(=O)NCCCC[C@H](NC(=O)Cc1ccccc1OC)C(=O)N1CCN(C(=O)c2cccc3ccccc23)CC1 | 299 10^3/M/min | 1.4 min⁻¹ | 
44 | C=CC(=O)NCCCC[C@H](NS(=O)(=O)c1ccccc1)C(=O)N1CCN(C(=O)c2cccc3ccccc23)CC1 | 7.1 10^3/M/min | 0.63 min⁻¹ | 
